This test concerns nude mice, LX-1 lung xenograft intrarenal, tumor weight T/C. As to the kind of experiment: NCI In Vivo Anticancer Drug Screen. Data for tumor model Human Lung LX-1 Xenograft (intrarenal inoculation) in NU/NU Swiss (nude) mice. As to conditions: endpoint: mean tumor weight change, higher = larger tumour. The method, boiled down:
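Activity was scored by measuring tumors in treated animals and in vehicle controls, then reporting the treated result as a fraction of the control result.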

[1] abbreviates: dose: 50.0 mg/kg/injection, schedule: Q04DX003 (sc), vehicle: saline with Tween-80.
Setting [2] is: dose: 100.0 mg/kg/injection, schedule: Q04DX003 (sc), vehicle: saline with Tween-80.
The mark [3] stands for this setting: dose: 200.0 mg/kg/injection, schedule: Q04DX003 (sc), vehicle: saline with Tween-80.
[4] abbreviates: dose: 400.0 mg/kg/injection, schedule: Q04DX003 (sc), vehicle: saline with Tween-80.
The mark [5] stands for this setting: dose: 50.0 mg/kg/injection, schedule: Q04DX003 (sc), vehicle: suspension in saline.
Setting [6] is: dose: 100.0 mg/kg/injection, schedule: Q04DX003 (sc), vehicle: suspension in saline.
Where [7] appears, read: dose: 4.0 mg/kg/injection, schedule: Q01DX010 (sc), vehicle: saline.
The mark [8] stands for this setting: dose: 12.5 mg/kg/injection, schedule: Q04DX003 (sc), vehicle: saline with Tween-80.
Where [9] appears, read: dose: 50.0 mg/kg/injection, schedule: Q01DX010 (sc), vehicle: saline with Tween-80.
[10] abbreviates: dose: 600.0 mg/kg/injection, schedule: Q04DX003 (sc), vehicle: water.
Setting [11] is: dose: 300.0 mg/kg/injection, schedule: Q04DX003 (sc), vehicle: saline with Tween-80.
The mark [12] stands for this setting: dose: 600.0 mg/kg/injection, schedule: Q04DX003 (sc), vehicle: saline with Tween-80.
[13] abbreviates: dose: 1200.0 mg/kg/injection, schedule: Q04DX003 (sc), vehicle: saline with Tween-80.
The mark [14] stands for this setting: dose: 18.75 mg/kg/injection, schedule: Q04DX003 (sc), vehicle: saline with Tween-80.
[15] abbreviates: dose: 37.5 mg/kg/injection, schedule: Q04DX003 (sc), vehicle: saline with Tween-80.
Setting [16] is: dose: 75.0 mg/kg/injection, schedule: Q04DX003 (sc), vehicle: saline with Tween-80.
The mark [17] stands for this setting: dose: 150.0 mg/kg/injection, schedule: Q04DX003 (sc), vehicle: saline with Tween-80.

SMILES strings stand for the structures. Where “and” joins values, the source holds several entries; their conditions need not be identical. Equal entries are not always repeated. Records with an inconclusive call do not appear.

As to `O=C(Nc1ccccc1C(=O)O)c1cc([N+](=O)[O-])cc([N+](=O)[O-])c1`, the T/C reads like this: under setting [1], 86 % of control; under setting [2], 86 % of control; under setting [3], 100 % of control; under setting [4], 64 % of control.

On to `C=C1C(=O)OCC1C(=O)O` (centres undefined), for which the T/C is 123 % of control under setting [5]; 95 % of control under setting [6]; 99 % of control (dose: 200.0 mg/kg/injection, schedule: Q04DX003 (sc), vehicle: suspension in saline).

As for `COc1cc([C@@H]2c3cc4c(cc3[C@@H](OC3OC5COC(C)OC5C(O)C3O)[C@H]3COC(=O)[C@H]23)OCO4)cc(OC)c1O` (some centres undefined), the T/C (dose: 2.0 mg/kg/injection, schedule: Q01DX010 (sc), vehicle: saline) was 153 % of control; the T/C under setting [7] is 80 % of control; the T/C (dose: 8.0 mg/kg/injection, schedule: Q01DX010 (sc), vehicle: saline) was 85 % of control; the T/C (dose: 16.0 mg/kg/injection, schedule: Q01DX010 (sc), vehicle: saline) was 31 % of control.

As for `CCN(CC)CCCNc1nccc2c(C)c3[nH]c4ccncc4c3cc12`, the T/C was 59 % of control (dose: 5.0 mg/kg/injection, schedule: Q01DX010 (sc), vehicle: other) and 49 % of control (dose: 10.0 mg/kg/injection, schedule: Q01DX010 (sc), vehicle: other).

As for `O=C1C=CC(n2cc(F)c(=O)[nH]c2=O)O1` (centres undefined), the T/C by setting is: (dose: 25.0 mg/kg/injection, schedule: Q04DX003 (sc), vehicle: Klucel (hydroxypropylcellulose) (HPC)) 57 % of control; (dose: 50.0 mg/kg/injection, schedule: Q04DX003 (sc), vehicle: Klucel (hydroxypropylcellulose) (HPC)) 60 % of control; (dose: 100.0 mg/kg/injection, schedule: Q04DX003 (sc), vehicle: Klucel (hydroxypropylcellulose) (HPC)) 46 % of control.

`CC1=C(C)C(=O)O[C@@H]([C@](C)(O)[C@]2(O)CC[C@@]3(O)[C@@H]4C[C@H]5O[C@]56[C@@H](O)C=CC(=O)[C@]6(C)[C@H]4CC[C@]23C)C1`: the T/C under setting [7] is 61 % of control and the T/C (dose: 64.0 mg/kg/injection, schedule: Q01DX010 (sc), vehicle: saline) was 121 % of control.

On to `CN=C(N)N/N=C(\C)c1ccc2c(c1)Cc1cc(/C(C)=N/NC(N)=NC)ccc1-2`, for which the T/C was 99 % of control under setting [8]; 90 % of control (dose: 25.0 mg/kg/injection, schedule: Q04DX003 (sc), vehicle: saline with Tween-80); 67 % of control under setting [1]; 69 % of control under setting [2].

As for `ClCC[N+]12CC[N+](CCCl)(CC1)C2`, the T/C reads like this: under setting [9], 42 % of control and 56 % of control; (dose: 400.0 mg/kg/injection, schedule: Q01DX010 (sc), vehicle: saline with Tween-80) 24 % of control; under setting [10], 54 % of control.

Turning to `COc1cc2cc(c1Cl)N(C)C(=O)CC(OC(=O)C(C)C)C1(C)OC1C(C)C1CC(O)(NC(=O)O1)C(OC)/C=C/C=C(C)C2` (centres undefined), the T/C (dose: 100.0 micrograms/kg/injection, schedule: Q01DX010 (sc), vehicle: saline + alcohol) is 19 % of control and 39 % of control; the T/C (dose: 200.0 micrograms/kg/injection, schedule: Q01DX010 (sc), vehicle: saline + alcohol) was 44 % of control.

Take `O=C1NC(c2ccccc2)N=C2Oc3ccccc3C=C12` (centres undefined): the T/C by setting is: (dose: 12.5 mg/kg/injection, schedule: Q01DX010 (sc), vehicle: saline with Tween-80) 186 % of control; (dose: 25.0 mg/kg/injection, schedule: Q01DX010 (sc), vehicle: saline with Tween-80) 123 % of control; under setting [9], 85 % of control; (dose: 100.0 mg/kg/injection, schedule: Q01DX010 (sc), vehicle: saline with Tween-80) 105 % of control; (dose: 200.0 mg/kg/injection, schedule: Q01DX010 (sc), vehicle: saline with Tween-80) 58 % of control.

As for `Cn1ccc(=Nc2ccc(NC(=O)c3ccc(N=c4ccn(C)c5ccc([N+](=O)[O-])cc45)cc3[N+](=O)[O-])cc2)cc1`, the T/C by setting is: under setting [11], 93 % of control; under setting [12], 75 % of control; under setting [13], 86 % of control; (dose: 2400.0 mg/kg/injection, schedule: Q04DX003 (sc), vehicle: saline with Tween-80) 83 % of control.

For `CCCC(=O)Nc1ncnc2c1ncn2C1OC2COP(=O)(O)OC2C1OC(=O)CCC` (centres undefined), the T/C was 122 % of control (dose: 100.0 mg/kg/injection, schedule: Q01DX010 (sc), vehicle: saline); 92 % of control (dose: 200.0 mg/kg/injection, schedule: Q01DX010 (sc), vehicle: saline); 81 % of control (dose: 400.0 mg/kg/injection, schedule: Q01DX010 (sc), vehicle: saline).

For `COC(=O)C(F)C(Br)C(=O)OC` (centres undefined), the T/C reads like this: under setting [14], 91 % of control; under setting [15], 111 % of control; under setting [16], 90 % of control.

As to `CO[C@H]1Nc2c(ccc(C)c2O)C(=O)N2C=C(/C=C/C(N)=O)C[C@@H]12`, the T/C is, setting by setting: (dose: 0.25 mg/kg/injection, schedule: Q04DX003 (sc), vehicle: saline + alcohol) 48 % of control; (dose: 0.5 mg/kg/injection, schedule: Q04DX003 (sc), vehicle: saline + alcohol) 75 % of control; (dose: 1.0 mg/kg/injection, schedule: Q04DX003 (sc), vehicle: saline + alcohol) 115 % of control; (dose: 2.0 mg/kg/injection, schedule: Q04DX003 (sc), vehicle: saline + alcohol) 39 % of control.

Regarding `O=C1c2ccccc2C(=O)c2c(NCCNCCO)ccc(O)c21`, the T/C is, setting by setting: (dose: 12.5 mg/kg/injection, schedule: Q04DX003 (sc), vehicle: suspension in saline) 94 % of control; (dose: 25.0 mg/kg/injection, schedule: Q04DX003 (sc), vehicle: saline) 90 % of control; (dose: 25.0 mg/kg/injection, schedule: Q04DX003 (sc), vehicle: suspension in saline) 108 % of control; (dose: 50.0 mg/kg/injection, schedule: Q04DX003 (sc), vehicle: saline) 74 % of control; under setting [5], 90 % of control; (dose: 100.0 mg/kg/injection, schedule: Q04DX003 (sc), vehicle: saline) 61 % of control. Moreover, the T/C is 92 % of control under setting [6] and 93 % of control (dose: 200.0 mg/kg/injection, schedule: Q04DX003 (sc), vehicle: saline).

In the case of `O=Cc1c(O)c2ccccc2[nH]c1=O`, the T/C was 84 % of control under setting [17], 99 % of control under setting [11], 90 % of control under setting [12] and 50 % of control under setting [13].

Take `Nc1nc(-c2cccc3ccccc23)cc2ccccc12`: the T/C reads like this: under setting [2], 107 % of control; under setting [3], 91 % of control; under setting [4], 94 % of control; (dose: 800.0 mg/kg/injection, schedule: Q04DX003 (sc), vehicle: saline with Tween-80) 53 % of control.

On to `COc1ccc(OC)c(Cc2cnc3nc(N)nc(N)c3c2C)c1`, for which the T/C is 82 % of control (dose: 75.0 mg/kg/injection, schedule: Q04DX003 (sc), vehicle: water); 80 % of control (dose: 150.0 mg/kg/injection, schedule: Q04DX003 (sc), vehicle: water); 94 % of control (dose: 300.0 mg/kg/injection, schedule: Q04DX003 (sc), vehicle: water); 94 % of control under setting [10].

Consider `Clc1cc(Cl)c(C[N+]23CN4CN(CN(C4)C2)C3)cc1Cl`, for which the T/C was 76 % of control under setting [14], 96 % of control under setting [15], 91 % of control under setting [16] and 107 % of control under setting [17].

On to `CC1CCC(NC(=O)N(CCCl)N=O)CC1` (centres undefined), for which the T/C (dose: 6.25 mg/kg/injection, schedule: Q01DX010 (sc), vehicle: Klucel (hydroxypropylcellulose) (HPC)) is 34 % of control and the T/C (dose: 12.5 mg/kg/injection, schedule: Q01DX010 (sc), vehicle: Klucel (hydroxypropylcellulose) (HPC)) was 5 % of control.

As for `O=C1C=C[C@H](O)[C@@]2(CO)O[C@@H]12`, the T/C is 108 % of control (dose: 6.25 mg/kg/injection, schedule: Q04DX003 (sc), vehicle: saline with Tween-80) and 77 % of control under setting [8].
